Assay results reported in patent US20230312528A1, “2-OXO-IMIDAZOLIDINE-4-CARBOXAMIDES AS NAV1.8 INHIBITORS” (Merck Sharp & Dohme LLC, priority 2020, published 2023).

Target: human NaV1.8 (Homo sapiens (Human), UniProt Q9Y5Y9)
Assay: Nav1.8 Qube automated patch-clamp assay
Format: cell-based
Settings: human NaV1.8 stably expressed in HEK 293 cells; automated 384-well patch-clamp; resting or inactivated state not specified
Protocol: Compounds were tested on human NaV1.8 and NaV1.5 channels stably expressed in human embryo kidney (HEK) 293 cells. Sodium current measurements on Qube® were conducted as follows: automated 384-well patch-clamp assays on the Qube® platform (Sophion Biosciences) were used to measure the inhibition of sodium flow through human NaV1.8 and NaV1.5 channels. Whole-cell voltage-clamp recordings were performed in QChips® (Sophion Biosciences) at room temperature. NaV1.8 current measurements on Qube® were obtained as follows: NaV1.8 currents were elicited with a 10 second 1 Hertz (Hz) pulse train from a holding potential of −90 millivolts (mV), delivered to the cells once per minute in the control condition (DMSO only) and after compound addition. The 1 hertz pulse train stimulation consisted of ten test pulses to 10 millivolt (mV) for 20 milliseconds (ms), each of which was followed by a 980 millisecond repolarization to −67 millivolts. At the end of the 10 second pulse train stimulation, a 5 second hyperpolarization step to −100 millivolt (mV) was used to recover NaV1.8 from fast inactivation. The peak currents elicited by the 1st and 10th test pulses were used to determine IC50 values for resting inhibition and inactivated state inhibition. NaV1.5 current measurements on Qube® were obtained as follows: NaV1.5 currents were elicited with a 20 second 3 Hertz pulse train in the control condition (DMSO only) and after compound addition. The pulse train consisted of sixty 20 millisecond test pulses to 0 millivolt from a holding potential of −80 millivolt (mV). The average peak currents elicited by the last 3 test pulses were used to determine IC50 values for NaV1.5 inhibition.
The following buffers were used for the Qube® recordings: External buffer for NaV1.8 Qube® recording: 150 NaCl, 2 CaCl2, 5 KCl, 1 Mg Cl2, 10 HEPES, 12 Dextrose; External buffer for Qube® NaV1.5 recording: 120 N-Methyl-D-Glucamine, 40 NaCl, 1 KCl, 2.7 CaCl2, 5 HEPES, 0.5 MgCl2; and Internal buffer for Qube® recording: 120 CsF, 30 CsCl, 10 EGTA, 5 HEPES, 5 NaF, 2 MgCl2.
For all Qube® experiments offline analysis was used to determine percent inhibition as a function of drug concentration. IC50 values were determined by fitting to the Hill equation.

Chain of human NaV1.8 (Q9Y5Y9 whole entry): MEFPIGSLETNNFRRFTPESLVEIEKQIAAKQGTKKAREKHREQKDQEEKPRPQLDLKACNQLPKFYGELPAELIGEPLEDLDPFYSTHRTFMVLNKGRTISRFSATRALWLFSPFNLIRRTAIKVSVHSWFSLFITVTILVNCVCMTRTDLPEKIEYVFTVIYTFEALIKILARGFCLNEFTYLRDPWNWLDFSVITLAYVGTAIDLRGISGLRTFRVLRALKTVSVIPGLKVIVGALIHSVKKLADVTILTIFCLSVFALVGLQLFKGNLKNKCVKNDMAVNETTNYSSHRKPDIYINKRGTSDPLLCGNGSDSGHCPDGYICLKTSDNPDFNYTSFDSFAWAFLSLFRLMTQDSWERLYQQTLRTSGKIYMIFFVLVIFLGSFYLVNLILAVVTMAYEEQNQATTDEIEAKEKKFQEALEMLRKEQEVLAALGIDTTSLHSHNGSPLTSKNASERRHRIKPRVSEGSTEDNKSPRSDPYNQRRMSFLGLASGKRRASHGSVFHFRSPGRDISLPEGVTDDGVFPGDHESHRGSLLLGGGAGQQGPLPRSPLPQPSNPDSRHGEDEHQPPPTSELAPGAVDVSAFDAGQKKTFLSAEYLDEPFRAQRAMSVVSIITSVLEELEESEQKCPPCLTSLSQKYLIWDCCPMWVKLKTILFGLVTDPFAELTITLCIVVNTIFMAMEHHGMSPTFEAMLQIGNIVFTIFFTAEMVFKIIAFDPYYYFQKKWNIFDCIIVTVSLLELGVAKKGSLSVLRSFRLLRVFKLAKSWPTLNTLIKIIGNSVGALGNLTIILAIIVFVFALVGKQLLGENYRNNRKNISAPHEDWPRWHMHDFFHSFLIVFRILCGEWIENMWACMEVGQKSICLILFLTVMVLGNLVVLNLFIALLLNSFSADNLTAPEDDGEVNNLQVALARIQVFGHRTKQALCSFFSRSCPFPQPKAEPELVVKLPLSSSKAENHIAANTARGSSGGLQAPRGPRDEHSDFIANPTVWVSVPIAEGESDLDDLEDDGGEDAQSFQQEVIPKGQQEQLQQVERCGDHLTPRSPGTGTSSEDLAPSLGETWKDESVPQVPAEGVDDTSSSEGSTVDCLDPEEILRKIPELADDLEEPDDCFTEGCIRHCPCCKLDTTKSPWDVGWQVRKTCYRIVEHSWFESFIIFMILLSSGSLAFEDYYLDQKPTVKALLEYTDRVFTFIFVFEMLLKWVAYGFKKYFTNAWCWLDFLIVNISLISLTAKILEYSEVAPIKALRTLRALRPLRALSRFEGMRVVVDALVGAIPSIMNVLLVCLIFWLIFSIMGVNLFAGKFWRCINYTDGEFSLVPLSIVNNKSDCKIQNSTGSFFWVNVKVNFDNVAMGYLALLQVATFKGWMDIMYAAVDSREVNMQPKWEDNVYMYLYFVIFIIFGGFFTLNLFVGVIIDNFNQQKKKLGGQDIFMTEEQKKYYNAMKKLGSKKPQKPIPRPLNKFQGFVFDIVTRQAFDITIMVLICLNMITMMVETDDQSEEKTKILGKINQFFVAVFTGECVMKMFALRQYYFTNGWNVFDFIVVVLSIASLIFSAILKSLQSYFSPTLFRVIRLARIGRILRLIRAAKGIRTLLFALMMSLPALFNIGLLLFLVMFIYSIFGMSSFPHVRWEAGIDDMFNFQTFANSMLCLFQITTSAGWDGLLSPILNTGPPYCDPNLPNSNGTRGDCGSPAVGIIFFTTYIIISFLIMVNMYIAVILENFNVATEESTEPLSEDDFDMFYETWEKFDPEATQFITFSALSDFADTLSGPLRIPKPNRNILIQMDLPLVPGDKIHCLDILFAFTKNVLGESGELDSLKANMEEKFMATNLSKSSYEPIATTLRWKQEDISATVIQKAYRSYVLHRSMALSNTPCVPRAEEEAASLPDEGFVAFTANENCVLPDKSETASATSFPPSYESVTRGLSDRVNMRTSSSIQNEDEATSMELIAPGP

SMILES	IC50 [nM]
CN1CC(C(=O)NC(c2ccc(Cl)cc2)c2ccc(Cl)cc2)NC1=O (single isomer, unassigned) [Example 10B, (R or S)-N-[bis(4-chlorophenyl)methyl]-1-methyl-2-oxoimidazolidine-4-carboxamide]	504
O=C1NC[C@@H](C(=O)NC(c2ccc(F)c(Cl)c2)c2ccc(F)c(OCC(F)(F)F)n2)N1 (single isomer, unassigned) [Example 11A, (4S)-N-{((R or S)-3-chloro-4-fluorophenyl)[5-fluoro-6-(2,2,2-trifluoro-ethoxy)pyridin-2-yl]methyl}-2-oxoimidazolidine-4-carboxamide]	50
O=C1NC[C@@H](C(=O)NC(c2ccc(F)c(Cl)c2)c2ccc(F)c(OCC(F)(F)F)n2)N1 (single isomer, unassigned) [Example 11B, (4S)-N-{((R or S)-3-chloro-4-fluoro-phenyl)[5-fluoro-6-(2,2,2-trifluoro-ethoxy)pyridin-2-yl]methyl}-2-oxoimidazolidine-4-carboxamide]	3.9
N#Cc1cccc(C(NC(=O)[C@@H]2CNC(=O)N2)c2ccc(F)c(Cl)c2)n1 (single isomer, unassigned) [Example 12A, (4S)-N-[((R or S)-3-chloro-4-fluorophenyl)(6-cyanopyridin-2-yl)methyl]-2-oxoimidazolidine-4-carboxamide]	81
N#Cc1cccc(C(NC(=O)[C@@H]2CNC(=O)N2)c2ccc(F)c(Cl)c2)n1 (single isomer, unassigned) [Example 12B, (4S)-N-[((R or S)-3-chloro-4-fluorophenyl)(6-cyanopyridin-2-yl)methyl]-2-oxoimidazolidine-4-carboxamide]	1420
O=C1NC[C@@H](C(=O)NC(c2cnc(C3CC3)c(Cl)c2)c2ccc(F)c(Cl)c2F)N1 (single isomer, unassigned) [Example 13A, (4S)-N-[((R or S)-5-chloro-6-cyclo-propylpyridin-3-yl)(3-chloro-2,4-difluoro-phenyl)methyl]-2-oxoimidazolidine-4-carboxamide]	1.1
O=C1NC[C@@H](C(=O)NC(c2cnc(C3CC3)c(Cl)c2)c2ccc(F)c(Cl)c2F)N1 (single isomer, unassigned) [Example 13B, (4S)-N-[((R or S)-5-chloro-6-cyclo-propylpyridin-3-yl)(3-chloro-2,4-difluoro-phenyl)methyl]-2-oxoimidazolidine-4-carboxamide]	38
O=C1NC[C@@H](C(=O)NC(c2cnc(C(F)(F)F)c(Cl)c2)c2ccc(F)c(C(F)(F)F)n2)N1 (single isomer, unassigned) [Example 14A, (4S)-N-{[(R or S)-5-chloro-6-(trifluoro-methyl)pyridin-3-yl][5-fluoro-6-(trifluoro-methyl)pyridin-2-yl]methyl}-2-oxoimidazolidine-4-carboxamide]	2.4
O=C1NC[C@@H](C(=O)NC(c2cnc(C(F)(F)F)c(Cl)c2)c2ccc(F)c(C(F)(F)F)n2)N1 (single isomer, unassigned) [Example 14B, (4S)-N-{[R or S)-5-chloro-6-(trifluoro-methyl)pyridin-3-yl][5-fluoro-6-(trifluoro-methyl)pyridin-2-yl]methyl}-2-oxoimidazolidine-4-carboxamide]	21
C[C@@H]1C[C@H](C(NC(=O)[C@@H]2CNC(=O)N2)c2ccc(F)c(Cl)c2)C[C@H](C)N1CC(F)(F)F (single isomer, unassigned) [Example 15A, (S)-N-((R or S)-(3-chloro-4-fluoro-phenyl)(cis-2,6-dimethyl-1-(2,2,2-trifluoroethyl)piperidin-4-yl)methyl)-2-oxoimidazolidine-4-carboxamide]	31
C[C@@H]1C[C@H](C(NC(=O)[C@@H]2CNC(=O)N2)c2ccc(F)c(Cl)c2)C[C@H](C)N1CC(F)(F)F (single isomer, unassigned) [Example 15B, (S)-N-((R or S)-(3-chloro-4-fluoro-phenyl)(cis-2,6-dimethyl-1-(2,2,2-trifluoroethyl)piperidin-4-yl)methyl)-2-oxoimidazolidine-4-carboxamide]	965
O=C1NC[C@@H](C(=O)NC(c2ccc(F)c(Cl)c2)c2csc(C3(C(F)(F)F)CC3)n2)N1 (single isomer, unassigned) [Example 16A, (S)-N-((R or S)-(3-choro-4-fluoro-phenyl)(2-(1-(trifluoromethyl)cyclopropyl)thiazol-4-yl)methyl)-2-oxoimidazolidine-4-carboxamide]	1.1
O=C1NC[C@@H](C(=O)NC(c2ccc(F)c(Cl)c2)c2csc(C3(C(F)(F)F)CC3)n2)N1 (single isomer, unassigned) [Example 16B, (S)-N-((R or S)-(3-chloro-4-fluoro-phenyl)(2-(1-(trifluoromethyl)cyclopropyl)thiazol-4-yl)methyl)-2-oxoimidazolidine-4-carboxamide]	14
O=C1NC[C@@H](C(=O)NC(c2ccc(Cl)cc2)c2ccc(F)c(C(F)(F)F)c2)N1 (single isomer, unassigned) [Example 17A, (S)-N-((R or S)-(4-chlorophenyl)(4-fluoro-3-(trifluoro-methyl)phenyl)methyl)-2-oxoimidazolidine-4-carboxamide]	0.6
O=C1NC[C@@H](C(=O)NC(c2ccc(Cl)cc2)c2ccc(F)c(C(F)(F)F)c2)N1 (single isomer, unassigned) [Example 17B, (S)-N-((R or S)-(4-chloropehnyl)(4-fluoro-3-(trifluoro-methyl)phenyl)methyl)-2-oxoimidazolidine-4-carboxamide]	7
N#Cc1ccc(C(NC(=O)[C@@H]2CNC(=O)N2)c2ccc(F)c(Cl)c2)cc1 (single isomer, unassigned) [Example 18A, (S)-N-((R or S)-(3-chloro-4-fluoro-phenyl)(4-cyano-phenyl)methyl)-2-oxoimidazolidine-4-carboxamide]	18
N#Cc1ccc(C(NC(=O)[C@@H]2CNC(=O)N2)c2ccc(F)c(Cl)c2)cc1 (single isomer, unassigned) [Example 18B, (S)-N-((R or S)-(3-chloro-4-fluoro-phenyl)(4-cyano-phenyl)methyl)-2-oxoimidazolidine-4-carboxamide]	17
CC1(C(=O)NC(c2ccc(Cl)cc2)c2ccc(Cl)cc2)NC(=O)NC1=O (single isomer, unassigned) [Example 20A, (R or S)—N-(bis(4-chlorophenyl)methyl)-4-methyl-2,5-dioxoimidazolidine-4-carboxamide]	19200
CC1(C(=O)NC(c2ccc(Cl)cc2)c2ccc(Cl)cc2)NC(=O)NC1=O (single isomer, unassigned) [Example 20B, (R or S)—N-(bis(4-chlorophenyl)methyl)-4-methyl-2,5-dioxoimidazolidine-4-carboxamide]	9480
O=C(NC(c1ccc(Cl)cc1)c1ccc(Cl)cc1)C1CNC(=O)N1CCO (single isomer, unassigned) [Example 21A, (R or S)—N-(bis(4-chlorophenyl)methyl)-3-(2-hydroxyethyl)-2-oxoimidazolidine-4-carboxamide]	209
O=C(NC(c1ccc(Cl)cc1)c1ccc(Cl)cc1)C1CNC(=O)N1CCO (single isomer, unassigned) [Example 21B, (R or S)—N-(bis(4-chlorophenyl)methyl)-3-(2-hydroxyethyl)-2-oxoimidazolidine-4-carboxamide]	14700
O=C1NC[C@@H](C(=O)NC(c2ccc(Cl)cc2)c2cnc(C(F)(F)F)[nH]2)N1 (single isomer, unassigned) [Example 22A, (S)—N—((R or S)-(4-chlorophenyl)(2-(trifluoromethyl)-1H-imidazol-4-yl)methyl)-2-oxoimidazolidine-4-carboxamide]	373
O=C1NC[C@@H](C(=O)NC(c2ccc(Cl)cc2)c2cnc(C(F)(F)F)[nH]2)N1 (single isomer, unassigned) [Example 22B, (S)—N—((R or S)-(4-chlorophenyl)(2-(trifluoromethyl)-1H-imidazol-4-yl)methyl)-2-oxoimidazolidine-4-carboxamide]	6410
O=C1NC[C@@H](C(=O)NC(CC2CCC(C(F)(F)F)CC2)c2ccc(F)c(Cl)c2F)N1 (single isomer, unassigned) [Example 23A, (S)—N—((R or S)-1-(3-chloro-2,4-difluorophenyl)-2-((cis or trans)-4-(trifluoromethyl)cyclohexyl)ethyl)-2-oxoimidazolidine-4-carboxamide]	15
